Measurements as given in patent US20230225991A1, “COMPOUNDS FOR USE IN THE TREATMENT OF ACUTE INTERMITTENT PORPHYRIA” (VESTLANDETS INNOVASJONSSELSKAP AS, priority 2019, published 2023).
Entries after “also recorded” stand apart in the source; their conditions may differ.

Legend:
WT-HMBS = biological target: T1, WT-HMBS (Homo sapiens, UniProt P08397); assay: HMBS activity after pre-incubation with compound at 70° C.; format: biochemical; conditions: pre-incubation with compound at 70° C. 20 min, then standard assay 100 μM PBG at 37° C., 84 μM compound, 2% DMSO
T1 construct: Full-length HMBS was cloned into pET-28a(+)-TEV vector and transformed into BL21 (DE3) cells for expression; 6xHis (N, cleaved yes); TEV protease cleavage site (N, cleaved yes); made in house; host or cells: E. coli BL21 (DE3)
T1 sequence (P08397 1-361): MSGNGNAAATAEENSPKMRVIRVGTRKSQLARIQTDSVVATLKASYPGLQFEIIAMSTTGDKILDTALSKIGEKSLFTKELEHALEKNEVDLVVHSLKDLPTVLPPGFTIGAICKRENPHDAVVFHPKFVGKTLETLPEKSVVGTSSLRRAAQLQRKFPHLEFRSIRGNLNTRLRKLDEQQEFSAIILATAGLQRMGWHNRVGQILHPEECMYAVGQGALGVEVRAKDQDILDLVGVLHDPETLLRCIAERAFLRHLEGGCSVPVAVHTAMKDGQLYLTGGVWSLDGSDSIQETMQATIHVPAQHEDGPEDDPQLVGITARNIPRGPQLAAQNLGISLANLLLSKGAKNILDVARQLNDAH
Method: The effect of the compounds on the stability of HMBS activity was assayed by pre-incubating the HMBS (4-5 μg) in 50 mM HEPES pH 8.2, 84 μM compound and 2% DMSO for 20 min at 70° C., and then placed on ice for 5 min. The enzymatic activity at 37° C. was subsequently measured as reported previously (Bustad et al., Bioscience reports 2013; 3 3(4)). Controls without compound but with equal concentration of DMSO were included. The remaining activity in the presence of compounds was normalized relative to DMSO-control (relative activity). […] USA, www.graphpad.com.
An enzymatic assay was performed to investigate the effect of compound BG-1 on the activity and conformational stability of HMBS. HMBS activity of the purified enzyme was measured in the absence and presence of compound BG-1 (at 84 μM) at standard conditions (37° C.) but also after pre-incubation at 70° C. for 20 min based on the high thermal stability of WT-HMBS.

HMBS = biological target: T2, HMBS (Homo sapiens, UniProt P08397); assay: Octet RED96 binding (S0.5); set-up: Full-length HMBS was cloned into pET-28a(+)-TEV vector and transformed into BL21 (DE3) cells for expression; 6xHis (N, cleaved yes); TEV protease cleavage site (N, cleaved yes); made in house; host or cells: E. coli BL21 (DE3); conditions: sigmoidal binding isotherm, SSA biosensors, biotinylated HMBS; read-out: S0.5 (concentration for half-maximal binding), Octet
T2 sequence (P08397 1-361): T1 sequence (P08397 1-361)
Method: The enzyme used in the binding assays using the Octet RED96 was expressed using a new construct with an N-terminal 6×HIS affinity tag and a TEV protease cleavage site. Full-length HMBS was cloned into pET-28a(+)-TEV vector and transformed into BL21 (DE3) cells for expression. Expression was done in Terrific Broth medium with IPTG induction. Cells were cultured 16 h at 20° C. with 220 rpm shaking. After harvesting, the cells were lysed with sonication, and standard affinity purification was performed using Ni-NTA affinity matrix. Protein was eluted with 20 mM HEPES, 150 mM NaCl (gel filtration buffer), pH 8 supplemented with 400 mM imidazole. […]
Octet RED96 system (ForteBio Biologics by Molecular Devices, LLC., San Jose, Calif.) with super streptavidin (SSA) biosensors was used as an additional method for determining the Kd-value for the binding of the compounds. […] Triplicates for the concentration series of the compounds were measured, and double reference subtraction was applied for data analysis based on the steady-state kinetics with equilibrium binding signal (Req) using ForteBio Data analysis 9.0. […]
The binding of compounds BG-1 and BG-2 to HMBS was analyzed by surface plasmon resonance (SPR) and response units from concentration-dependent steady state measurements were analyzed assuming a 1:1 binding model. […]

[1] = tested on: Hmbs-deficient T1/T2−/− mice; assay: Mouse trial T1/T2-A, phenobarbital-induced biochemical acute attack

Which results are given for `O=Cc1cc(Cc2ccccc2Cl)cc([N+](=O)[O-])c1O` [BG-1]?
Relative activity, pre-inc. at 70° C (WT-HMBS): 1.01 ± 0.06; Kd (HMBS): 83 ± 7 µM; Toxicity in treated mice ([1]; 10 mg/kg/day oral gavage, 12 days, behavior and organ appearances): No apparent toxicity; also recorded: No toxic effect was registered; HMBS protein levels or activity in erythrocytes or liver ([1]; 10 mg/kg/day, 12 days, compared to non-treated Hmbs-deficient mice): did not cause any significant change; Urinary levels of ALA ([1]; 10 mg/kg/day, day 12, compared to non-treated mice): slight decreasing tendency
